Three compounds from patent US5192747A, “Anticoagulant peptides” (Merrell Dow Pharmaceuticals Inc., priority 1991, dated 1993) can be followed below.

Starred links: 1 amine or outer side, 2 acyl side, 3 side chain; linkers in the order of their positions; H or OH if unused. Non-standard residues stand in square brackets, D forms with d. Residues, ends and D or L forms follow the SMILES beside them. Cha = N[C@@H](CC1CCCCC1)C(=O)O; Suc = O=C(CCC(=O)[*:2])[*:1]

The assay has as its target Bovine thrombin (Bos taurus, UniProt P00735). Kind of assay: thrombin induced fibrin clot inhibition assay. It counts as biochemical.
Description: Samples were tested in a thrombin induced fibrin clot inhibition assay. All the solutions of the assay were made with an assay buffer containing 0.12M sodium chloride, 0.01M sodium phosphate, 0.01% sodium azide and 0.1% bovine serum albumin, pH 7.4. […] This solution of thrombin (50 ul; 0.2 pmol) was added to the wells of a microtiter plate containing 50 ul of a solution of the synthetic peptide being tested. […] The turbidity of the solution was monitored by the autoreader at 5 min intervals. […] This is equivalent to a twofold increase in fibrin clot formation time. For the assays using human thrombin,, it and bovine thrombin were titrated to concentrations which gave the fibrin clot at the same rate over a 30 min period.
For the compound `CC[C@H](C)[C@H](NC(=O)[C@@H]1CCCN1C(=O)[C@H](CCC(=O)O)NC(=O)[C@H](Cc1ccc(O)cc1)NC(=O)CCC(=O)O)C(=O)N1CCC[C@H]1C(=O)N[C@@H](CCC(=O)O)C(=O)N[C@@H](CCC(=O)O)C(=O)N[C@@H](CC1CCCCC1)C(=O)N[C@@H](CCC(N)=O)C(N)=O` [compound 5, Suc--Tyr--Glu--Pro--Ile-- Pro--Glu--Glu--Cha--Gln--NH2] (Suc-YEPIPEE[Cha]Q-NH2), the IC50 was less than 25 µM.
`CC[C@H](C)[C@H](NC(=O)[C@@H]1CCCN1C(=O)[C@H](CCC(=O)O)NC(=O)[C@H](Cc1ccc(O)cc1)NC(=O)CCC(=O)O)C(=O)N1CCC[C@H]1C(=O)N[C@@H](CCC(=O)O)C(=O)N[C@@H](CCC(=O)O)C(=O)N[C@@H](C)C(=O)N[C@@H](CC1CCCCC1)C(=O)O` [compound 18, Suc--Tyr--Glu--Pro--Ile--Pro--Glu--Glu--Ala--Cha--OH]: the IC50 was less than 25 µM.
Then `CC[C@H](C)[C@H](NC(=O)[C@@H]1CCCN1C(=O)[C@H](CCC(=O)O)NC(=O)[C@H](Cc1ccc(O)cc1)NC(=O)CCC(=O)O)C(=O)N1CCC[C@H]1C(=O)N[C@@H](CCC(=O)O)C(=O)N[C@@H](CCC(=O)O)C(=O)N[C@@H](CC1CCCCC1)C(=O)N[C@H](CCC(=O)O)C(=O)O` [compound 15, Suc--Tyr--Glu--Pro--Ile--Pro--Glu--Glu--Cha--D-Glu--OH], with less than 25 µM.

The IC50 is the point on the concentration scale where inhibition reaches its midpoint. Higher therefore signals lower potency.
